These results are taken from patent US9750242B2, “Nitrite salts as poisons in baits for omnivores” (priority 2007, dated 2017).

Where two headings read alike, the source gives them in different places.

Data set [1] has as its system dingos. The note with it: bait delivered 1080, captive trials; cited from earlier work.
Data set [2] has as its system Mouse.
In data set [3] the test system is Rat.
Data set [4] has as its system Pig.
Data set [5] relates to feral pigs. The following applies: for Mean peak Met hb: approximate peak. From the text:
The captive feral pig colony at Robert Wicks Pest Animal Research Centre (Queensland Department of Natural Resource, Mines and Water) was comprised of feral pigs harvested by commercial harvesters in the area surrounding Inglewood, Queensland. A variety of sexes, ages and sizes were drawn at random from the captive colony and used in these trials. Feral pigs were housed in the purpose built feral pig accommodation.
This trial occurred in January 2006. The trial design is set out in FIG. 5. Twenty-one fasted captive feral pigs were anaesthetised with ketamine (20 mgkg^−1) and xylazine (1.2 mgkg^−1) by intramuscular injection with a 16 gauge needle into the quadriceps muscle. […] The resulting liquid was then administered by oesophageal gavage to an individual feral pig. A number of sodium nitrate dosages were trialled on different groups of feral pigs. After administration, feral pigs were observed carefully for clinical signs and death. […] Each dose rate contained three feral pigs.
This was done on an identical manner to the placebo feral pigs.
Feral pigs were then sampled opportunistically at various times over the following minutes or hours. […] Feral pigs which recovered from anaesthetic quickly, or were large, were sampled less frequently than other feral pigs. All feral pigs were also blood sampled immediately after death (within 1 minute). The blood samples were used to assess Methaemoglobin levels (Met […] Hb). An automated radio-oximeter (model ABL520 supplied by Radiometer Copenhagen) was used for blood Met Hb analysis. The Met Hb data from each individual within a group was pooled to provide dose response curves for multiple feral pigs administered at a single dose rate. The feral pigs which received 135 mgkg^−1 were not blood sampled until after death. A post mortem examination was conducted on all feral pigs.
Serial Met Hb levels were pooled for each group of feral pigs receiving a single dose rate and plotted against time. Trend-lines were fitted to the data. Logarithmic functions were used for the three higher dose rates, while a polynomial trend line was fitted to the 90 mgkg^−1 feral pig group. […] This program makes few assumptions about data and consists of a range of univariate, multivariate and graphical routines for analysing matrices of samples. Specifically, ordination by multidimensional scaling (MDS) was used to visually differentiate feral pigs based on variables (time to death, peak Met haemoglobin levels, time to dyspnoea and time to vomiting). One factor was used, dose rate. Data was normalized and 30 random resets occurred. ANOSIM was used to determine whether significant differences between these variables were due to dose rate. SIMPER (a function of Primer) was used to determine dissimilarity between dose rates, or what dose rates were most dissimilar.

For data set [6], the system named is Raccoon.
For data set [7], the system named is feral pigs. In words: Bait delivery trial: sodium nitrite to feral pigs in food. Type of data set: in vivo, feral pig. How it is done:
The trials were conducted in October 2005 and June 2006. Both trials were designed to test the hypothesis that SN would be lethal to feral pigs when they consumed the toxin freely in food. […] Before the toxin trial, each feral pig was pre-fed daily for 10 days with the bait substrate they were to receive during the toxin trial (bait or dry wheat). During the trial, six feral pigs acted as controls, receiving no toxin, but receiving bait substrate (carrier material). Three of these received wheat and three received the manufactured baits of the type described in Example 2. The remaining 18 feral pigs were divided into three groups of six animals. Three pigs in each group received 250 or 500 g (depending on body size and therefore total toxic dose to deliver) of wheat and the other three received one or two the baits (again, amount of toxin dependent). […] Feral pigs were observed every 15 minutes for 6 hours, then hourly for 6 hours, then at euthanasia 12 hours after clinical signs developed (if they remained alive). Each dose rate contained six animals divided evenly amongst two bait carrier materials. Six controls were used.

Data set [8] relates to Northern brown bandicoot.
The subject of data set [9] is Common brushtail possum.
Where [10] appears, read: 44.8 kg male with profuse bleeding into the thorax.
Setting [11] is: gavage, doses of 135 mgkg^-1 or above, nine feral pigs.

Take `O=C(O)CF` [Example 1080, sodium fluoroacetate]: the LD50 dose in data set [1] is given as 0.11 mg/kg.

As for `O=NO` [SN, Sodium nitrite], the “Approximate bait lethal dose” value in [2] was about 705 mg/kg; in data set [3] it was about 291 mg/kg; in [4], about 310 mg/kg; in [6], about 150 mg/kg; in [8] it was about 696 mg/kg; in data set [9], about 489 mg/kg. For the same compound, the “Approximate gavage lethal dose” value is on record as about 235 mg/kg in data set [2]; about 97 mg/kg in data set [3]; about 103 mg/kg in [4]; about 232 mg/kg in data set [8]; about 163 mg/kg in data set [9]. The “Approximate lethal SN dose” value in data set [2] (body size 0.03 kg) is listed as about 0.02 gm; in [3] (body size 0.1 kg), about 0.03 gm; in data set [4] (body size 50 kg), about 15.5 gm; in data set [6] (body size 3 kg), about 0.75 gm; in [8] (body size 2 kg), about 1.4 gm; in [9] (body size 4 kg), about 2.0 gm. Also, the “peak Met Hb level, individual pig” value in [5] (setting [10]) was determined as 90.1%. Moreover, the “time to death after gavage, individual pig” value in data set [5] (setting [10]) stood at 47 min. Moreover, the post mortem abnormalities result in [5] (90 mgkg^-1 group) was “no abnormalities were detected”. Also, the “post mortem abnormalities, only consistent sign” value in data set [5] (all animals which died following nitrite ingestion) is “dark or chocolate coloured blood and subsequent discolouration of organs and tissues which are well vascularised”. In addition, the “Met Hb levels in surviving pigs” value in data set [5] (gavage 90 mg/kg, 14 hours post administration, two survivors) is “near zero”. Further, the “deaths of animals dosed” value in data set [5] (gavage 90 mgkg^-1) is given as “one of three”. Also, in data set [5] (gavage 90 mgkg^-1), the “period of lethargy (lessened gradually)” value lay in the range of 4 to 6 h. For the same compound, the Death/survival in [5] (gavage 90 mgkg^-1, 3 feral pigs) is on record as 1/2; in [5] (gavage 135 mgkg^-1, 3 feral pigs) it was 3/0; in [5] (gavage 180 mgkg^-1, 3 feral pigs), 3/0; in data set [5] (gavage 180 mgkg^-1 with Na2CO3 (30 g), 3 feral pigs), 3/0. Also, in data set [5] (gavage 90 mgkg^-1, following blood sampling), the “time to death of one animal after dosing” value is on record as “approximately 5 hours”. Moreover, the vomiting result is listed as “two of three animals” in data set [5] (gavage 90 mgkg^-1, three hours after intoxication) and “Seven animals vomited between 1-4 times” in [5] (gavage >=135 mgkg^-1, nine animals). Besides, the “Mean peak Met hb” value in [5] (gavage 90 mgkg^-1, two from three animals assessed) is reported as 55^3%; in [5] (gavage 135 mgkg^-1) it was 89 ± 6%; in data set [5] (gavage 180 mgkg^-1), 83 ± 8%; in [5] (gavage 180 mgkg^-1 with Na2CO3), 80 ± 15%. The results for the “Mean time to death” value in data set [5] (gavage 135 mgkg^-1), in [5] (gavage 180 mgkg^-1) and in data set [5] (gavage 180 mgkg^-1 with Na2CO3) were 115 ± 18 min, 87 ± 16 min and 52 ± 26 min, respectively. The “in-coordination, paddling and short convulsive seizures” value in [5] (gavage >=135 mgkg^-1, close to time of death) is “two of nine animals”. The “time to dyspnoea after gavage” value in data set [5] (gavage >=135 mgkg^-1, most animals) was in the range of 30 to 60 min. For the same compound, in [5] (gavage, all feral pigs that were sampled), the “effect on blood Met Hb values” was “rapid increases in blood Met Hb values”. Besides, in [5] (gavage, doses of 135 mgkg^-1 or above), the “range of time to death” value fell in the range of 42 to 130 min. The deaths entry in data set [5] (setting [11]) was “All nine feral pigs that received doses of 135 mgkg^−1 or above died”; in data set [7] (135 mgkg^-1 in bait substrate, six animals) it was “none died”; in [7] (270 mgkg^-1 consumed, five animals), “one of these died”; in data set [7] (540 mgkg^-1 consumed in either bait substrate, 2 for each substrate), 4/4. Besides, the entries for the “mean time to death (S.D.)” value in [5] (setting [11]), in [7] (all dead animals) and in data set [7] (animals that received the full 540 mgkg^-1 dose) were 106 ± 75 min, 141 ± 49 min and 122 ± 49 min, respectively. In addition, the “mean peak Met Hb level in killed feral pigs” value in [5] (gavage, killed feral pigs) is listed as 82%. In addition, the results for the “mean time that clinical signs were displayed” value in data set [7] (all animals) and in [7] (animals receiving the full 540 mgkg^-1 dose) were 84 ± 41 min and 80 ± 51 min, respectively. Besides, in [7] (approximately 400 mgkg^-1 in wheat (370 g of 500 g eaten)), the “outcome of one animal with partial dose” value is on record as “still died”.

As to `O=C([O-])[O-].[Na+].[Na+]` [Sodium carbonate, sodium carbonate, reference compound], the “synergism with SN (Met Hb curves)” value in data set [5] (30 g sodium carbonate followed by 180 mgkg^-1 SN, gavage) is reported as “did not appear to act as a synergist”.
